Results reported in US10730877B2, “4-Azaindole compounds” (BRISTOL-MYERS SQUIBB COMPANY, priority 2017, dated 2020).
Read-outs that look alike come from different tables or passages of the source.

Columns and labels:
human TLR9 = human TLR9 (Homo sapiens (Human), UniProt Q9NR96); experiment: TLR9 inhibition reporter assay (HEK-Blue cells, SEAP reporter, ODN2006 stimulation);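 note: SEAP driven by IFN-β minimal promoter with five NF-κB and AP-1 sites, compounds 0.05 nM–50 µM in DMSO, 22 h, inhibition scaled between agonist plus DMSO and reference inhibitor wells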
Method: (§1) HEK-Blue™-cells (Invivogen) overexpressing human TLR7, TLR8 or TLR9 receptors were used for screening inhibitors of these receptors using an inducible SEAP (secreted embryonic alkaline phosphatase) reporter gene under the control of the IFN-β minimal promoter fused to five NF-κB and AP-1-binding sites. Briefly, cells are seeded into Greiner 384 well plates (15000 cells per well for TLR7, 20,000 for TLR8 and 25,000 for TLR9) and then treated with test compounds in DMSO to yield a final dose response concentration range of 0.05 nM-50 μM. After a 30 minute compound pre-treatment at room temperature, the cells are then stimulated with a TLR7 ligand (gardiquimod at a final concentration of 7.5 μM), TLR8 ligand (R848 at a final concentration of 15.9 μM) or TLR9 ligand (ODN2006 at a final concentration of 5 nM) to activate NF-κB and AP-1 which induce the production of SEAP. After a 22 hour incubation at 37° C., 5% CO2, SEAP levels are determined with the addition of HEK-Blue™ Detection reagent (Invivogen), a cell culture medium that allows for detection of SEAP, according to manufacturer's specifications.

human TLR7 = human TLR7 (Homo sapiens (Human), UniProt Q9NYK1); experiment: TLR7 inhibition reporter assay (HEK-Blue cells, SEAP reporter, gardiquimod stimulation); assay type: cell-based; conditions: HEK-Blue cells overexpressing human TLR7, SEAP reporter, gardiquimod 7.5 μM
Method: as §1

human TLR8 = human TLR8 (Homo sapiens (Human), UniProt Q9NR97); experiment: TLR8 inhibition reporter assay (HEK-Blue cells, SEAP reporter, R848 stimulation); conditions: read-out: TLR8 IC50; HEK-Blue cells overexpressing human TLR8, SEAP reporter, R848 15.9 μM;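 note: SEAP under an IFN-β minimal promoter carrying five NF-κB and AP-1 sites, 22 h at 37 °C, doses 0.05 nM–50 µM, inhibition scaled between agonist-plus-DMSO and reference-inhibitor wells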
Method: as §1

[1] = read-out: TLR9 IC50, HEK-Blue cells overexpressing human TLR9, SEAP reporter, ODN2006 5 nM

Chain of human TLR7 (Q9NYK1 27-1049): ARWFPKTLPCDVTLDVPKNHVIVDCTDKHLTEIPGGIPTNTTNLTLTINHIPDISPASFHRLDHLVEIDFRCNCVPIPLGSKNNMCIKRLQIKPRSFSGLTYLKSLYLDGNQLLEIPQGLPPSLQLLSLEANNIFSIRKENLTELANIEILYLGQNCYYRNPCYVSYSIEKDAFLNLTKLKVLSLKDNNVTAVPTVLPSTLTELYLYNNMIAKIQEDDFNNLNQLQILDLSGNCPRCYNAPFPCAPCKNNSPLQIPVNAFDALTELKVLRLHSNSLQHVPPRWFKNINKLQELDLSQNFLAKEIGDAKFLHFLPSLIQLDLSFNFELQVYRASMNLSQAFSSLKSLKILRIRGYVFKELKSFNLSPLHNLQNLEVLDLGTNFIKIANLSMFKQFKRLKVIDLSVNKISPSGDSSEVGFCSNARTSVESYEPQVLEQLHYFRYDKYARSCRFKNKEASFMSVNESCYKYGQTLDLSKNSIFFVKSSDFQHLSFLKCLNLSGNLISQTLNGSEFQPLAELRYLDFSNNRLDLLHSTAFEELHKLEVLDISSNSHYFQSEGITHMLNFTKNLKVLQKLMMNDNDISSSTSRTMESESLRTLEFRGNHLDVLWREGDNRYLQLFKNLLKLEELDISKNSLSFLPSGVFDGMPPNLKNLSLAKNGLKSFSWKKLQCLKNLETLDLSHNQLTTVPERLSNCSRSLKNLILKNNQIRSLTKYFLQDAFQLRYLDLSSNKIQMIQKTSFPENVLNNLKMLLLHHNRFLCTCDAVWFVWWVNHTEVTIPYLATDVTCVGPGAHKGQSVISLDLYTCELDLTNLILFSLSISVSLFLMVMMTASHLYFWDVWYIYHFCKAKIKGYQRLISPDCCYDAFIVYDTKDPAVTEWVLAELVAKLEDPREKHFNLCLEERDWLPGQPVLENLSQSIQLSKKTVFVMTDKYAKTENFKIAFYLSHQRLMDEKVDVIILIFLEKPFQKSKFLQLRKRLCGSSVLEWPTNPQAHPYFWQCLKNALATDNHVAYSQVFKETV
Chain of human TLR8 (Q9NR97 27-1041): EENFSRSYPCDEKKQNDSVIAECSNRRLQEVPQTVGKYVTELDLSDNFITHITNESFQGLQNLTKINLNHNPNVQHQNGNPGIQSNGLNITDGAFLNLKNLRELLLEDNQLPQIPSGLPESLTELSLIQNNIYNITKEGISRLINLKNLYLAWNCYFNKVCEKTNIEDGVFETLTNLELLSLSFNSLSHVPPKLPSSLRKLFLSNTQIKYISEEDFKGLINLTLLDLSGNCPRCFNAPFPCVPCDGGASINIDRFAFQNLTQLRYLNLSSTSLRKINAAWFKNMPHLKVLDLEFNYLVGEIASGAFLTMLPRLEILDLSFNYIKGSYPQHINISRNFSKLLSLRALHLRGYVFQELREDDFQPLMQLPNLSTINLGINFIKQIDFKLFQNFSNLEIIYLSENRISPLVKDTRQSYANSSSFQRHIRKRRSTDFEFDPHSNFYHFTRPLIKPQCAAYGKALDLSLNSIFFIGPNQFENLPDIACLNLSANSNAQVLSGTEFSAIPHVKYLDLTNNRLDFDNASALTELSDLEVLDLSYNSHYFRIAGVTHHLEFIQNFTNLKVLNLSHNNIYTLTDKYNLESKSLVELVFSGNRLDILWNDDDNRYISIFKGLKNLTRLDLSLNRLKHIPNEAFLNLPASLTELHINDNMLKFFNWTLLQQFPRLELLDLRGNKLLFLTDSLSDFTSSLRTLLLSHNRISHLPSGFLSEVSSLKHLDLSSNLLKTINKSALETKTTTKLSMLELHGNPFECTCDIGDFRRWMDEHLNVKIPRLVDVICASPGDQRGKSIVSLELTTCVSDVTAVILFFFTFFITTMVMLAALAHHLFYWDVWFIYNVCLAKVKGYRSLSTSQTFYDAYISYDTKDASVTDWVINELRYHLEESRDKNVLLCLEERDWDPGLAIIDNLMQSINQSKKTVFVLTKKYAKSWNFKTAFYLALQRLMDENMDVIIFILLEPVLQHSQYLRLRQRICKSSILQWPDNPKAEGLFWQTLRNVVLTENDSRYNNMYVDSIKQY
Chain of human TLR9 (Q9NR96 26-1032): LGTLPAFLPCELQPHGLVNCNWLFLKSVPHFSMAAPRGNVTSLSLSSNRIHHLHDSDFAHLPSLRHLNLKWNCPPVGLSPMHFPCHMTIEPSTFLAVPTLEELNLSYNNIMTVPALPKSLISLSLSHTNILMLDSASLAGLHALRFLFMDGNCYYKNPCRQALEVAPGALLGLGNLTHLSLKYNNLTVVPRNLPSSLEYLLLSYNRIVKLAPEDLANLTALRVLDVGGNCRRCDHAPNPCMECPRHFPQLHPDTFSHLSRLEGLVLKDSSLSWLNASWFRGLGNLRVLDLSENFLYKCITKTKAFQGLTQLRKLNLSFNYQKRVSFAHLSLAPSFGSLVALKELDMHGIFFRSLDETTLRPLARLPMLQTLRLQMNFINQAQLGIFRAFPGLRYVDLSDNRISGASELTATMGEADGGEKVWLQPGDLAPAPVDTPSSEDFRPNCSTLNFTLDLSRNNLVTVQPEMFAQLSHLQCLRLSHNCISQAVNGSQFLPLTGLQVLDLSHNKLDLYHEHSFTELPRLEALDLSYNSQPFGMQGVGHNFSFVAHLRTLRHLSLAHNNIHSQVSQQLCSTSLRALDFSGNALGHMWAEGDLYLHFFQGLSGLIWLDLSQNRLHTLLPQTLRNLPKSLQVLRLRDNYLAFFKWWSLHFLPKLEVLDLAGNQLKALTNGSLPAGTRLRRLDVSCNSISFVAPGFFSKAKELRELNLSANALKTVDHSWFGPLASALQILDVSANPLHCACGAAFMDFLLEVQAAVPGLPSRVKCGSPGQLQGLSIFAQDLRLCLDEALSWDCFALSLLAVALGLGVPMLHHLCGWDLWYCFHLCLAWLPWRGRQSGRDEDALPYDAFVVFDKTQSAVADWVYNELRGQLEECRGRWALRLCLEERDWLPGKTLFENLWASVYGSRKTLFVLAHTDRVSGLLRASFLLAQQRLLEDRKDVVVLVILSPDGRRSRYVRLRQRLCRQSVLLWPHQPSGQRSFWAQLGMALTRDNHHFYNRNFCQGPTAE

Compound Cc1c(-c2[nH]c3ccc(N4CCC(N(C)Cc5ncccn5)CC4)nc3c2C(C)C)cn2cnnc2c1C [Example 78] has an IC50 (human TLR9; [1]) of 3170 nM, an IC50 (human TLR7) of 3.7 nM and an IC50 (human TLR8) of 10 nM.
CC(C)c1c(-c2cn(CCS(C)(=O)=O)c3ncccc23)[nH]c2ccc(C3CCC(NC4CCOCC4)CC3)nc12 (centres unmarked) [Example 271] was tested, and the IC50 (human TLR9; [1]) was 228 nM, the IC50 (human TLR7) was 120 nM and the IC50 (human TLR8) was 40 nM.
For CC(C)c1c(-c2cn(CC#N)c3ncccc23)[nH]c2ccc(C3CCC(NC4CCOCC4)CC3)nc12 (centres unmarked) [Example 274], the IC50 (human TLR9; [1]) was 474 nM, the IC50 (human TLR7) was 8.5 nM and the IC50 (human TLR8) was 3.7 nM.
In the case of CCN(CCS(C)(=O)=O)C1CCC(c2ccc3[nH]c(-c4cn5ncnc5c(C)c4C)c(C(C)C)c3n2)CC1 (centres unmarked) [Example 460], the IC50 (human TLR9; [1]) is reported as 2060 nM, the IC50 (human TLR7) is reported as 0.88 nM and the IC50 (human TLR8) is reported as 0.79 nM.
With Cc1cc(-c2[nH]c3ccc(C4CCN(CC(N)=O)CC4)nc3c2C(C)C)cn2ncnc12 [Example 559] the IC50 (human TLR9; [1]) was 4920 nM, the IC50 (human TLR7) was 0.72 nM and the IC50 (human TLR8) was 4.6 nM.
In the case of CCCN(CCC)C1CCC(Oc2ccc3[nH]c(-c4cc(OC)c5ncnn5c4)c(C(C)C)c3n2)CC1 (centres unmarked) [Example 605, 4-((3-isopropyl-2-(8-methoxy-[1,2,4]triazolo[1,5-a]pyridin-6-yl)-1H-pyrrolo[3,2-b]pyridin-5-yl)oxy)-N,N-dipropylcyclohexan-1-amine], the IC50 (human TLR9) is reported as 4240 nM and the IC50 (human TLR7) is reported as 13 nM.
Work on COc1cc(-c2[nH]c3ccc(CCC4CN(Cc5c[nH]nn5)C4)nc3c2C(C)C)cn2ncnc12 [Example 688] yielded an IC50 (human TLR9; [1]) of 177 nM, an IC50 (human TLR7) of 8.4 nM and an IC50 (human TLR8) of 23 nM.
In the case of Cc1c(-c2[nH]c3ccc(N4[C@@H]5CC[C@H]4CN(CCC(N)=O)C5)nc3c2C(C)C)cn2ncnc2c1C [Example 749], the IC50 (human TLR9; [1]) is reported as 14900 nM, the IC50 (human TLR7) is reported as 2.9 nM and the IC50 (human TLR8) is reported as 2.6 nM.
In the case of Cc1c(-c2[nH]c3ccc(N4C[C@H]5CCC[C@@H](C4)N5C(=O)CN(C)C)nc3c2C(C)C)cn2ncnc2c1C [Example 750], the IC50 (human TLR9; [1]) is reported as 6140 nM, the IC50 (human TLR7) is reported as 1.2 nM and the IC50 (human TLR8) is reported as 3.7 nM.
With Cc1c(-c2[nH]c3ccc(N4C[C@H]5CCC[C@@H](C4)N5CCS(C)(=O)=O)nc3c2C(C)C)cn2ncnc2c1C [Example 751] the IC50 (human TLR9; [1]) was 26000 nM, the IC50 (human TLR7) was 13 nM and the IC50 (human TLR8) was 7.3 nM.
Cc1c(-c2[nH]c3ccc(N4C[C@H]5C[C@@H]4CN5CC(N)=O)nc3c2C(C)C)cn2ncnc2c1C [Example 762] showed an IC50 (human TLR9; [1]) of 18300 nM, an IC50 (human TLR7) of 3.8 nM and an IC50 (human TLR8) of 8.6 nM.
Compound Cc1c(-c2[nH]c3ccc(N4C[C@H]5C[C@@H]4CN5CCC(N)=O)nc3c2C(C)C)cn2ncnc2c1C [Example 763] has an IC50 (human TLR9; [1]) of 4580 nM, an IC50 (human TLR7) of 3.8 nM and an IC50 (human TLR8) of 2.6 nM.
Cc1c(-c2[nH]c3ccc(N4C[C@H]5C[C@@H]4CN5CCS(C)(=O)=O)nc3c2C(C)C)cn2ncnc2c1C [Example 764] showed an IC50 (human TLR9; [1]) of 14400 nM, an IC50 (human TLR7) of 1.9 nM and an IC50 (human TLR8) of 2.8 nM.
Cc1c(-c2[nH]c3ccc(N4C[C@H]5C[C@@H]4CN5CCCS(C)(=O)=O)nc3c2C(C)C)cn2ncnc2c1C [Example 765] gave an IC50 (human TLR9; [1]) of 10300 nM, an IC50 (human TLR7) of 5.6 nM and an IC50 (human TLR8) of 3.5 nM.
In the case of Cc1c(-c2[nH]c3ccc(N4C[C@H]5C[C@@H]4CN5CC#N)nc3c2C(C)C)cn2ncnc2c1C [Example 766], the IC50 (human TLR9; [1]) is reported as 3510 nM, the IC50 (human TLR7) is reported as 0.86 nM and the IC50 (human TLR8) is reported as 1.2 nM.
Cc1c(-c2[nH]c3ccc(N4C[C@H]5C[C@@H]4CN5CCC(=O)N(C)C)nc3c2C(C)C)cn2ncnc2c1C [Example 767] was tested, and the IC50 (human TLR9; [1]) was 8300 nM, the IC50 (human TLR7) was 5.4 nM and the IC50 (human TLR8) was 2.9 nM.
Work on Cc1c(-c2[nH]c3ccc(N4C[C@H]5C[C@@H]4CN5C4COC4)nc3c2C(C)C)cn2ncnc2c1C [Example 768] yielded an IC50 (human TLR9; [1]) of 21000 nM, an IC50 (human TLR7) of 6.4 nM and an IC50 (human TLR8) of 9.6 nM.
Cc1c(-c2[nH]c3ccc(N4C[C@H]5C[C@@H]4CN5C4CCS(=O)(=O)CC4)nc3c2C(C)C)cn2ncnc2c1C [Example 770] gave an IC50 (human TLR9; [1]) of 18200 nM, an IC50 (human TLR7) of 11 nM and an IC50 (human TLR8) of 24 nM.
